Holding throughout (assay): microbe, parasite or virus in culture
The subject of test [1] is influenza virus A/H3N2. It is filed as cell-based, influenza virus A (H3N2 strain). Conditions: for EC50: MDCK.
The subject of test [2] is A/H3N2 and B/Victoria strains. The class given is cell-based. Conditions: Influenza A virus, range over compounds 22 and 26 and both strains.
Test [3] has as its system influenza virus B/Victoria strain. It is filed as cell-based. Conditions: MDCK.
The mark [4] stands for this setting: Influenza A virus, H3N2, MDCK, read-out: CPE inhibition.

We go through 2 molecules from article PMC11944884, “Bioactive Secondary Metabolites of Two Chinese Edible Boletes, Phlebopus portentosus and Butyriboletus roseoflavus” (Molecules, 2025).

Regarding `CC(C)[C@@H](C)/C=C/[C@@H](C)[C@H]1CC[C@H]2C3=C[C@@H](O)[C@@]4(O)C[C@@H](O)CC[C@]4(C)[C@H]3CC[C@]12C` [Compound 22, cerevisterol], in test [1] (Influenza A virus, H3N2, MDCK), the IC50 (commonly the concentration that gives 50% inhibition) was determined as 9.6 µM. Besides, in test [1] (setting [4]), the inhibition (in general, the share of the control response that was lost under treatment) at 1.56 µM worked out at 0%; the inhibition at 3.13 µM turned out to be 0%; the inhibition at 6.25 µM was 0%; the inhibition at 12.5 µM is 75%. Moreover, the inhibition at 25 µM in test [1] (setting [4]) came out at 75%. Further, a half-maximal response in test [1] (EC50) required 9.6 µM. Further, the 50% effective concentration (EC50) – broadly, the midpoint of the concentration-response curve – in test [2] lay within 3.6 to 9.6 µM. In test [3], the response was half-maximal at 6.6 µM (EC50) and the IC50 came to 6.6 µM. Also, in test [3] (read-out: CPE inhibition), the inhibition at 1.56 µM worked out at 0%, the inhibition at 3.13 µM was 0%, the inhibition at 6.25 µM is 10% and the inhibition at 12.5 µM was determined as 75%. In test [3] (read-out: CPE inhibition), the inhibition at 25 µM amounted to 75%.

`CC(C)[C@@H](C)/C=C/[C@@H](C)[C@H]1CC[C@H]2C3=C(CC[C@]12C)[C@@]1(C)CC[C@H](O)C[C@@]12O[C@H]2[C@H]3O` [Compound 26, (22E,24R)-5α,6α-epoxy-ergosta-8,22-dien-3β,7α-diol] came in with a concentration for half-maximal inhibition (IC50) in test [1] (Influenza A virus, H3N2, MDCK) of 4 µM. Besides, in test [1] (setting [4]), the inhibition at 0.78 µM was found to be 3.3%, the inhibition at 1.56 µM stood at 15%, the inhibition at 3.13 µM was determined as 27.5% and the inhibition at 6.25 µM is 75%. Also, the inhibition at 12.5 µM in test [1] (setting [4]) came out at 82.5%. The molecule also registered an EC50 in test [1] of 4 µM. Further, the EC50 in test [2] lay within 3.6 to 9.6 µM. In test [3], the 50% effective concentration (EC50) turned out to be 3.6 µM and the IC50 came out at 3.6 µM. In addition, in test [3] (read-out: CPE inhibition), the inhibition at 0.78 µM was 6.6%, the inhibition at 1.56 µM came out at 15%, the inhibition at 3.13 µM turned out to be 25% and the inhibition at 6.25 µM is 75%. For the same molecule, in test [3] (read-out: CPE inhibition), the inhibition at 12.5 µM was 75%.
